The source of these data is US20220202811A1, “TREATMENT FOR RETINOIC ACID RECEPTOR-RELATED ORPHAN RECEPTOR Ɣ (RORƔ)-DEPENDENT CANCERS” (The Regents of the University of California, priority 2019, published 2022).

Structures are written as SMILES. “Also recorded” adds a separate entry of the source.

In data set [1] the test system is primary patient-derived PDX1535 organoids. The data set is described as follows: PDX1535 organoid assay. The class given is cell-based, human. Here is the method: PDX1535 organoids were derived from a patient of pancreatic cancer. Primary patient organoids were established by digesting patient-derived xenografts for 1 hour at 37° C. in RPMI containing 2.5% FBS, 5 mg/ml Collagenase II, and 1.25 mg/ml Dispase II, followed by passage through a […] mesh filter. Cells were plated at a density of 1.5×10^5 cells per 50 μl Matrigel. After domes were solidified, growth medium was added as follows: RPMI containing 50% Wnt3a conditioned media, 10% RSpondin1-conditioned media, 2.5% FBS, 50 ng/ml EGF, 5 mg/ml Insulin, 12.5 ng/ml hydrocortisone, and 14 μM Rho Kinase Inhibitor. After establishment, organoids were passaged and maintained. Briefly, organoids were isolated using Cell Recovery Solution (Corning 354253), then dissociated into single cell suspension with TrypLE Express (ThermoFisher 12604) supplemented with 25 μg/ml DNase I (Roche) and 14 μM Rho Kinase Inhibitor (Y-27632, Sigma). Cells were split 1:2 into 20 μl domes plated on pre-warmed 48-well plates. Domes were incubated at 37° C. for 5 min, then covered with human complete organoid feeding media without Wnt3a-conditioned media. […] The organoids were imaged and measured at the end of treatment. […] Moreover, the anti-cancer effect of JTE-151 was determined in an organoid assay using pancreatic cancer cells derived from mice bearing primary patient-derived xenografts.

Data set [2] concerns primary patient-derived organoids. The data set is described as follows: compilation of primary patient-derived organoids. In kind it is cell-based, human.
Data set [3] concerns tumor-bearing KP^f/fC mice. Kind of data set: tumor-bearing KP^f/fC mice in vivo (AZD-0284, JTE-151). On the set-up: species or system mouse.
A further data set concerns IL-17. The data set is described as follows: circulating IL-17 level in tumor-bearing KP^f/fC mice. As to conditions: 120 mg/kg JTE-151 regimen, responding mice (FIGS. 59-60). In kind it is in vivo, mouse. Here is the method: Similarly, the anti-cancer effect of JTE-151 was tested on tumor-bearing KP^f/fC mice in vivo at a higher dose of 120 mg/kg (FIGS. 59-61 showing three individual experiments). For each experiment, one mouse was given vehicle treatment, and another mouse was given the JTE-151 regimen as specified in the figures. For example, in FIG. 59, the JTE-151 mouse received 120 mg/kg body weight of JTE-151 for 2 weeks and then 90 mg/kg JTE-151 for 1 week. In the first 1.5 weeks, JTE-151 was given once daily, and in the second 1.5 weeks, JTE-151 was given twice daily. […] In each of FIGS. 59-61, the horizontal axis of each graph represents the target (vehicle vs. JTE-151 mouse), and the vertical axis represents the specified measurement.

In the next data set the test system is pancreatic cancer cell. Kind of data set: in vitro sphere formation, antagonists of Table 2. The class given is cell-based, mouse. The settings on record: extent of growth suppression relative to control. Here is the method:
Pancreatic tumorsphere formation assays were performed and modified from (Rovira et al., 2010). Briefly, low-passage (<6 passages) WT or REM2-KP^f/fC cell lines were infected with lentiviral particles containing shRNAs; positively infected (red) cells were sorted 72 hours after transduction. 100-300 infected cells were suspended in tumorsphere media: 100 μl DMEM F-12 (Gibco, Life Technologies) containing 1× B-27 supplement (Gibco, Life Technologies), 3% FBS, 100 μM B-mercaptoethanol (Gibco, Life Technologies), 1× non-essential amino acids (Gibco, Life Technologies), 1× N2 supplement (Gibco, Life Technologies), 20 ng/ml EGF (Gibco, Life Technologies), 20 ng/ml bFGF2 (Gibco, Life Technologies), and 10 ng/ml ESGRO mLIF (Thermo Fisher). Cells in media were plated in 96-well ultra-low adhesion culture plates (Costar) and incubated at 37° C. for 7 days. KP^f/fC in vitro tumorsphere formation studies were conducted at a minimum of n=3 independent wells per cell line across two independent shRNA of n=3 wells; however, the majority of these experiments were additionally completed in >1 independently-derived cell lines n=3, at n=3 wells per shRNA.

Data set [4] deals with KP^f/fC derived flank tumors. The data set is described as follows: KP^f/fC flank tumors in immunocompetent mice. The class given is in vivo, mouse.
For data set [5], the system named is Msi2-reporter+ stem cells. The data set is described as follows: live imaging of REM2-KP^f/fC tumors. In kind it is in vivo, mouse. The protocol: For imaging, mice were anesthetized by intraperitoneal injection of ketamine and xylazine (100/20 mg/kg). In order to visualize blood vessels and nuclei, mice were injected retro-orbitally with AlexaFluor 647 anti-mouse CD144 (VE-cadherin) antibody and Hoechst 33342 immediately following anesthesia induction. After 25 minutes, pancreatic tumors were removed and placed in HBSS containing 5% FBS and 2 mM EDTA. 80-150 μm images in 1024×1024 format were acquired with an HCX APO L20× objective on an upright Leica SP5 confocal system using Leica LAS AF 1.8.2 software. GFP cluster sizes were measure using ImageJ 1.51s software. 2 mice per treatment group were analyzed in this study; 6-10 frames were analyzed per mouse.

Data set [6] relates to primary murine PanIN derived organoids. Kind of data set: PanIN derived organoids. In kind it is cell-based. Here is the method: Moreover, RORγ inhibitor SR2211 can block the growth of benign pancreatic intraepithelial neoplasia (PanIN) lesions. The effect of SR2211 was tested on dissociated primary murine PanIN derived organoids.
Data set [7] has as its system autochthonous tumor-bearing KP^f/fC mice. Kind of data set: autochthonous KP^f/fC survival study.
[8] abbreviates: AZD-0284 90 mg/kg once daily + gemcitabine 25 mg/kg once weekly, 3 weeks.
Where [9] appears, read: 30 mg/kg JTE-151 once daily for about 3 weeks (FIG. 52).
The mark [10] stands for this setting: 90 mg/kg JTE-151, 3 weeks, compilation (FIG. 57).
The mark [11] stands for this setting: 90 mg/kg JTE-151, 3 weeks, individual experiments (FIGS. 53-55).
[12] abbreviates: JTE-151 at either 30 mg/kg or 90 mg/kg, 3 weeks (FIG. 58).
Setting [13] is: SR2211 in combination with gemcitabine.

For the compound `CC(=O)N1Cc2cc(S(C)(=O)=O)ccc2[C@@H]1C(=O)Nc1ccc(C(O)(C(F)(F)F)C(F)(F)F)cc1` [AZD-0284], the entries for the “decrease in organoid volume compared to control” value in [1] (3 μM AZD-0284 + 0.025 nM gemcitabine), in data set [1] (6 μM AZD-0284 + 0.025 nM gemcitabine) and in data set [1] (12 μM AZD-0284 + 0.025 nM gemcitabine) were 2.81 fold, 4.72 fold and 6.90 fold, respectively. Moreover, the organoid volume result in [1] (3 μM AZD-0284 and 0.04 nM gemcitabine) is “significant reduction; also recorded: significant inhibition”; in data set [1] (AZD-0284 alone, 6 μM or 12 μM (FIG. 37)), “significantly reduced”. Also, the organoid growth result in data set [1] (6 μM AZD-0284 alone) is “visibly inhibited”; in [1] (6 μM AZD-0284 in combination with 0.025 nM gemcitabine), “visibly inhibited”; in [2] (AZD-0284 at 3 μM and more so at 6 μM, PDX1356 and PDX1535 (FIG. 40)) it was “significantly inhibited”. In addition, the “EpCam+ tumor epithelial cells” value in data set [3] (90 mg/kg AZD-0284 alone) and in [3] (setting [8]) was “loss” each time. For the same compound, the “EpCam+/CD133+ tumor stem cells” value in data set [3] (90 mg/kg AZD-0284 alone) and in [3] (setting [8]) was “loss” in each case. In addition, the cell number result in data set [3] (90 mg/kg AZD-0284 alone) and in [3] (setting [8]) was “lower” each time. Also, the tumor mass entry in data set [3] (90 mg/kg AZD-0284 alone) was “lower”.

On to `Cc1ccc(NC(=O)C[C@H](CCC(=O)O)c2noc([C@H]3C[C@@H](CC(C)(C)C)C3)c2C2CC2)c(Cl)c1` [JTE-151, (4S)-6-[(2-chloro-4-methylphenyl)amino]-4-{4-cyclopropyl-5-[cis-3-(2,2-dimethylpropyl)cyclobutyl]isoxazol-3-yl}-6-oxohexanoic acid], for which the organoid volume entry in data set [1] (3 μM JTE-151 alone (FIG. 63)) is on record as “visibly reduced; also recorded: inhibited”; in data set [1] (3 μM JTE-151 and 0.05 nM gemcitabine combination (FIG. 63)) it was “visibly reduced; also recorded: inhibited”. Moreover, the organoid growth entry was “significant inhibition” in [1] (JTE-151 alone at 0.3 μM, 1 μM, and 3 μM (FIG. 64)); “significantly inhibited” in [2] (JTE-151 at 0.3 μM and more so at 3 μM, PDX1356, PDX1535, PDX202, PDX204 (FIG. 68)). In addition, in the data set with IL-17, the “circulating IL-17 levels” value was “decrease”. Besides, the “EpCam+ tumor epithelial cells” value in data set [3] (setting [9]) was “decrease in EpCam+ tumor epithelial cells was statistically significant”; in data set [3] (setting [10]), “loss”; in data set [3] (setting [11]), “decreased”; in data set [3] (setting [12]) it was “loss”. The cell number entry in data set [3] (setting [9]), in data set [3] (setting [10]) and in data set [3] (setting [12]) was “reduced” in each case. Besides, the “EpCam+/CD133+ tumor stem cells” value in [3] (setting [11]) is listed as “decreased”. The “change of cell number in the tumor” value in data set [3] (120 mg/kg JTE-151 regimen, mice that responded) is given as “varied”. In addition, in data set [3] (JTE-151 at 90 mg/kg (FIG. 58)), the tumor mass result is given as “significantly reduced”.

`OC(c1ccc(-c2ccc(CN3CCN(Cc4ccncc4)CC3)cc2)c(F)c1)(C(F)(F)F)C(F)(F)F` [SR2211]: in the data set on pancreatic cancer cell, the “in vitro sphere formation” value is on record as “✓✓✓✓ (dose response observed; growth suppressed by 8-fold or more relative to control)”. Also, in data set [4] (SR2211 alone), the “depletion in CD133+ cells” value was found to be 3 fold and the “depletion in Msi+ cells” value is 3 fold. In [4] (setting [13]), the “depletion of CD133+ cells” value worked out at 11 fold and the “depletion of Msi2+ cells” value is recorded as 6 fold. For the same compound, the “necrosis in surrounding tissues” value in [5] (mouse, in vivo) is reported as “no increased necrosis”. In addition, the “large stem cell clusters” value in data set [5] (within 1 week of treatment) was “striking depletion”. Moreover, in data set [6], the organoid number entry is recorded as “reduced” and the organoid volume result is “reduced”. For the same compound, the mice alive in [7] (25 days after the initiation of treatment) is listed as 75%. In data set [7] (45 days after treatment initiation), this compound had a mice alive of 50%. For the same compound, the Hazard ratio in [7] (SR2211 vs vehicle) came to 0.16. The same compound yielded a median survival in data set [7] (treated daily from 8 weeks of age until moribund) of 38.5 days. Further, the “decreased risk of death” value in data set [7] (vs vehicle) worked out at 6 fold.
